Data: PMC10343216 (Molecules, 2023)
Where “and” joins values, the source holds several entries; their conditions need not be identical. Equal values may be shown once. Read-outs that look alike come from different tables or passages of the source.

How the values were obtained:
human 11β-HSD1 = target: T1, human 11β-HSD1 (Homo sapiens, UniProt P28845); assay: Human 11β-HSD1 assay in human liver microsomes (cortisone to cortisol, HPLC-MS/MS); format: biochemical; details: for IC50 / remaining activity at 100 µM: 200 nM cortisone, 15 min; for IC50: Mean ± SEM, n = 4; for remaining activity at 100 µM: human, 100 µM compound, read-out: 11β-HSD1 residual activity relative to the control (DMSO); for Mode Action: human 11β-HSD1, judged by α and Lineweaver-Burk plot
T1 construct: Human 11β-HSD1 in liver microsomes catalyzes the conversion of cortisone to cortisol; tissue Iphase (Beijing, China) H2610; host or cells: human liver microsomes (purchased)
Description: (§1) The 11β-HSD1 activity was determined by measuring the reductive catalysis of 11keto-steroid substrates, cortisone for human 11β-HSD1 and DHC for rat 11β-HSD1, which were converted to cortisol and CORT, respectively. The 11β-HSD1 assay was carried out as previously described with a minor modification. […] At the end of the reaction, acetonitrile (200 µL, CAT#: UN1648; Sigma) and internal standard testosterone-d5 (IS, T-d5, 10 μL, Zzbio, Shanghai, China) were added to the system, the organic layer was extracted, and 10 µL was injected into the HPLC-MS/MS system to measure cortisol, or CORT, as previously described.
(§2) The amount of cortisol, or CORT, in the organic layer was determined using an Acquity UPLC equipped with a BEH C18 column (2.1 mm, 50 mm, 1.7 m) and a 0.2 mm stainless steel frit filter and an XEVO TQD triple quadrupole mass spectrometer (Waters, Milford, MA, USA), as previously described. The mobile phase was a mixture of solvents A (0.1% formic acid in water) and B (acetonitrile) combined in the following gradient program: 5–5% B (0–0.5 min), 5–95% B (0.5–1.0 min), 95–95% B (1.0–2.0 min), and 95–5% B (2.0–2.1 min). The injection volume was 6 µL, and the flow rate was 0.40 mL/min. Before the second injection, a re-equilibration period of 0.9 min was set. The temperatures were 4 °C for the sample and 40 °C for column. Mass spectrometric detection was carried out using a Waters Corporation XEVO TQD triple quadruple mass spectrometer with an ESI source. For cortisol and IS, the multiple reaction monitoring mode transitions were m/z 358.3→340.3 and m/z 237.2→194.3. Data collection and instrument control were performed using Masslynx 4.1 software (Waters Corp., Milford, MA, USA). Cortisol, or CORT, standards were prepared by dissolving them in methanol. […] The enzymatic activity obtained by measuring the conversion rate (%) of cortisone to cortisol for human 11β-HSD1 or DHC to CORT for rat 11β-HSD1 was calculated.
(§3) The time curve of the 11β-HSD1 reaction was prepared by a linear regression using GraphPad version 8.0 (GraphPad, San Diego, CA, USA). […] The lineweaver-Burk plot after linear regression was also carried out to judge the mode of action.

rat 11β-HSD1 = target: T2, rat 11β-HSD1 (Rattus norvegicus, UniProt P16232); assay: Rat 11β-HSD1 assay in rat liver microsomes (DHC to CORT, HPLC-MS/MS); format: biochemical; details: for remaining activity at 100 µM: read-out: 11β-HSD1 residual activity relative to the control (DMSO); for Mode Action: rat 11β-HSD1, judged by α and Lineweaver-Burk plot; for α (mixed model): rat liver 11β-HSD1
T2 construct: Rat 11β-HSD1 in liver microsomes catalyzes the conversion of DHC to CORT; from tissue; host or cells: liver microsomes of male Sprague-Dawley rats (age 3 months), prepared in house
Description: The preparation of rat liver microsomes was carried out as previously reported. In this preparation procedure, rat livers were homogenized in sucrose (0.25 M) containing PBS (0.01 M, pH 7.2). […] The pellets were resuspended in cold PBS by homogenization, and the concentration of microsomal protein was determined using the Bio-Rad Protein Assay Kit (CAT#: P0010; Beyotime, Jiangsu, China) according to the manufacturer’s instructions.
as §1, §2, §3

[1] = ZINC database ref 39; cited from earlier work
[2] = rat, 100 µM compound, 200 nM DHC, 15 min
[3] = human liver microsomes, read-out: IC50
[4] = substrate, rat liver microsomes, Michaelis-Menten
[5] = substrate, human liver microsomes, Michaelis-Menten

T2 sequence (P16232 whole entry): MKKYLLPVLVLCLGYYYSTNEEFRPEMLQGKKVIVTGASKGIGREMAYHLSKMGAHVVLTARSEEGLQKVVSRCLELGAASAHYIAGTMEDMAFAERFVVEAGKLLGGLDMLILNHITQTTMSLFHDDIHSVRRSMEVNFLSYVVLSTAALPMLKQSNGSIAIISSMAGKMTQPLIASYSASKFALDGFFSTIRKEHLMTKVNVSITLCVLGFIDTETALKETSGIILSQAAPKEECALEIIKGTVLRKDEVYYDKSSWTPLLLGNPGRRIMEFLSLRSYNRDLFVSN
T1 sequence (P28845 whole entry): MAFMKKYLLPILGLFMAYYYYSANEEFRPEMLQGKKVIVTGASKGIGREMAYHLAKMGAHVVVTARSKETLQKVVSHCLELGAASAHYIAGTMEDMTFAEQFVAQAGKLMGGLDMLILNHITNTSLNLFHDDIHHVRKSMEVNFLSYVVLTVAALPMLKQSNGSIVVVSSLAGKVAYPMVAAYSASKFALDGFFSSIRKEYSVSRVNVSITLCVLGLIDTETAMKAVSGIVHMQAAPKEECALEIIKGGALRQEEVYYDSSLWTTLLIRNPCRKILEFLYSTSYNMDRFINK

| Structure (SMILES) | IC50 (human 11β-HSD1; IC50, human liver microsomes) | remaining activity at 100 µM (human 11β-HSD1) | IC50 (rat 11β-HSD1) | remaining activity at 100 µM (rat 11β-HSD1; [2]) | LogP [1] | Mode Action (human 11β-HSD1) | Ki (human 11β-HSD1) | also measured |
| --- | --- | --- | --- | --- | --- | --- | --- | --- |
| CC(C)(c1ccc(O)cc1)c1ccc(O)cc1 [BPA, bisphenol A, reference compound] | 297 ± 2.99 µM | > 50% | 36.8 ± 1.09 µM | ≤ 50% | 3.424 and 3.42 | – | – | – |
| COc1ccc(C(C)(C)c2ccc(OC)cc2)cc1 [BPAME, 4,4′-(propane-2,2-diyl)bis(methoxybenzene)] | – | ≤ 50% | – | > 50% | 4.03 | competitive inhibitors | – | IC50 (human 11β-HSD1; [3]): 33.1 ± 0.57 µM; Ki (human 11β-HSD1; human liver microsomes, enzyme kinetics-inhibition (mixed model), read-out: Ki (inhibition constant, measured)): 33.8 µM; IC50 (rat 11β-HSD1; rat liver microsomes, 200 nM DHC, 15 min, Mean ± SEM, n = 4, read-out: IC50): 206 ± 2.16 µM |
| CC(C)c1cc(C(C)(C)c2ccc(O)c(C(C)C)c2)ccc1O [BPG, 4,4′-(propane-2,2-diyl)bis(2-isopropylphenol)] | 5.06 ± 0.07 µM | ≤ 50% | 104 ± 1.52 µM | ≤ 50% | 5.671 | competitive inhibitors | 5.33 µM | Ki (rat 11β-HSD1): 88.6 µM; Mode Action (rat 11β-HSD1): mixed/competitive inhibitors; α (mixed model) (rat 11β-HSD1): 5.78 |
| CC(C)(c1ccc(O)c(-c2ccccc2)c1)c1ccc(O)c(-c2ccccc2)c1 [BPH, 2,2-bis(2-hydroxy-5-biphenylyl)propane] | 0.75 ± 0.02 µM | ≤ 50% | 74.2 ± 0.98 µM | ≤ 50% | 6.758 | competitive inhibitors | 0.44 µM | Ki (rat 11β-HSD1): 74.6 µM; Mode Action (rat 11β-HSD1): mixed/competitive inhibitors; α (mixed model) (rat 11β-HSD1): ∞ |
| C=CCc1cc(C(C)(C)c2ccc(O)c(CC=C)c2)ccc1O [DABPA, 2,2′-diallyl BPA] | 13.4 ± 0.19 µM | ≤ 50% | 132 ± 1.66 µM | > 50% | 4.881 | competitive inhibitors | 14 µM | – |
| C[C@]12CC(=O)[C@H]3[C@@H](CCC4=CC(=O)CC[C@@]43C)[C@@H]1CC[C@@H]2C(=O)CO [DHC, 11-dehydrocorticosterone, reference compound] | – | – | – | – | – | – | – | Km (rat 11β-HSD1; [4]): 0.94 ± 0.09 µM; Vmax (rat 11β-HSD1; [4]): 1072 ± 115.5 pmol/mg/min |
| Cc1cc(C(C)(C)c2ccc(O)c(C)c2)ccc1O [DMBPA, 2,2-bis(4-hydroxy-3-methylphenyl)propane] | 30.2 ± 0.71 µM | ≤ 50% | – | > 50% | 4.041 and 4.04 | competitive inhibitors | 31 µM | – |
| Cc1cc(C(C)(C)c2cc(C)c(O)c(C)c2)cc(C)c1O [TMBPA, 2,2-bis(4-hydroxy-3,5-dimethylphenyl)propane] | – | > 50% | – | – | – | – | – | IC50 (human 11β-HSD1; [3]): 319.2 ± 2.78 µM; 11β-HSD1 residual activity relative to the control (DMSO) (rat 11β-HSD1; [2]): ineffective |
| C[C@]12CCC(=O)C=C1CC[C@@H]1[C@@H]2C(=O)C[C@@]2(C)[C@H]1CC[C@]2(O)C(=O)CO [cortisone, reference compound] | – | – | – | – | – | – | – | Km (human 11β-HSD1; [5]): 0.93 ± 0.22 µM; Vmax (human 11β-HSD1; [5]): 253.2 ± 20.5 pmol/mg/min |
